The subject of assay [1] is Gβγ interaction with Raf1 and Erk1/2. Briefly: Co-immunoprecipitation of Gβγ with Raf1 and Erk1/2 in neonatal rat cardiomyocytes. The assay is classed as cell-based. The settings on record: angiotensinII 100 nM 5 min, carbachol 300 μM 10 min, neuregulin 20 ng ml^−1 10 min. On the procedure: (§1) The inventors prepared cell lysates and tissue lysates using lysis buffer (0.5% (v/v) NP-40, 150 mM NaCl, 25 mM Na4P2O7, 50 mM β-glycerol phosphate disodium salt, 2 mM EDTA, 2 mM EGTA, 25 mM Tris, pH 8.0, 10% (v/v) glycerol, 10 μg ml^−1 soybean trypsin inhibitor, 1 mM benzamidine, 1 mM PMSF, 50 mM NaF, 0.1 mM Na3VO4, 0.002% (w/v) NaN3) similarly as described (Lorenz et al., 2003). The inventors determined the interaction of Gβγ with endogenous Raf1, ERK1/2, HA-tagged Raf1 or HA-tagged Erk2 constructs by immunoprecipitation with the respective antibodies (as indicated in the figures). After immunoprecipitation, the inventors detected co-immunoprecipitated proteins in immunoblot analyses using the respective antibodies (as indicated in the figures). Before lysis, the inventors incubated adult or neonatal cardiomyocytes with or without agonist as indicated (angiotensinII, 100 nM, 5 min or 24 h; carbachol, 300 μM, 10 min or 36 h; neuregulin1-β1, 20 ng ml^−1, 10 min or 24 h; phenylephrine, 35 μM, 5 min or 48 h). HEK293-cells were cultured in the absence or presence of carbachol (100 μM, 6 min) or UK14304 (1 μM, 10 min) before lysis. […]

The next assay deals with Src-kinase. Kind of assay: Neuregulin-induced hypertrophic effects in neonatal cardiomyocytes with Src-kinase inhibitor. The assay is classed as cell-based, rat. On the procedure: (§2) The inventors assessed phosphorylation of Gαq/11 by immunoprecipitation of Gαq/11 from lysates of neonatal cardiomyocytes without or with neuregulin1-β1 treatment (20 ng ml^−1, 10 min) using Gαq/11-specific antibodies (sc-392 AC, Santa Cruz) followed by detection of phosphotyrosine and immunoprecipitated Gαq/11 by immunoblot analyses. The inventors prepared the lysates as described above.
The inventors measured protein synthesis rates in isolated cardiomyocytes by [^3H]isoleucine incorporation. The inventors seeded transfected cardiomyocytes on 24-well plates in MEM supplemented with bromodeoxyuridine (25 mg l^−1), cobalamin (2 mg l^−1), NaHCO3 (350 mg l^−1), penicillin (100 U ml^−1), streptomycin (100 μg ml^−1) and 5% (v/v) fetal calf serum. After 24 h, the inventors reduced the serum concentration to 1% for 1 day followed by fasting in serum-free medium for 24-48 h. Thereafter, the inventors labeled the cells with [^3H]isoleucine (1 μCi ml^−1) for 24-48 h in the absence or presence of 100 nM angiotensinII, 300 μM carbachol, 10 ng ml^−1 neuregulin1-β1 or 35 μM (R)-(−)-phenylephrine as indicated. The inventors measured radioactivity incorporated into the TCA (trichloroacetic acid)-precipitable material by scintillation counting.

The subject of a further assay is Erk1/2. Kind of assay: Immunoblot of Thr188-phosphorylation of Erk1/2 in cardiomyocytes. The settings on record: 20 ng ml^−1. Type of assay: cell-based. How it is done: as §1, with “[…];” for “neuregulin1-β1, 20 ng ml^−1, 10 min or 24 h;”
For orientation: Immunoblotting shows a protein as a band on a membrane.

The test system of a further assay is Gαq/11. Briefly: Detection of tyrosine phosphorylated Gαq/11 in neonatal cardiomyocytes. Type of assay: cell-based, rat. To be noted: 20 ng ml^−1, 10 min. How it is done: as §2
Another assay concerns Mek. Briefly: Determination of total inositol phosphates in HEK293-cells. Type of assay: cell-based. The settings on record: carbachol 50 μM, 15 min. How it is done:
For determination of total inositol phosphates, the inventors transfected HEK293-cells with the indicated Erk2-constructs. After labeling of the cells with myo-[2-^3H]-inositol (1 mCi ml^−1) in inositol-free DMEM for 24 h, the inventors incubated the cells in incubation buffer (137 mM NaCl, 5 mM KCl, 10 mM LiCl, 1 mM CaCl2, 1 mM MgCl2, 10 mM HEPES, […]) for 15 min. The inventors extracted the inositol phosphates by addition of HClO4 (20%) before neutralizing the extract with KOH (1 M), removing the precipitates by centrifugation and applying the supernatants to anion exchange columns (DowexAG1×8, Biorad). The inventors then eluted total inositol phosphates by HCl (1 M) and measured the incorporated radioactivity by scintillation counting.

Another assay deals with Mek1/2. Briefly: Co-immunoprecipitation of HA-Raf1 with Gβ in HEK293 cells. Type of assay: cell-based. The settings on record: PD98059 50 μM, CCH, 5 min. How it is done: as §1, with “[…] The inventors prepared ventricular tissue from mouse hearts derived from male 129SvEv (FIG. 1g,h), FVB/N wild-type (WT) or Erk2^T188-transgenic mice (1188T, T188D, T188S, T188A) (FVB/N background) without or after transverse aortic constriction (TAC, see Fig. legends for the duration of TAC) or carbachol-infusion. Control animals” for “HEK293-cells”, “strain-, age- and gender-matched.” for “cultured in the absence or presence of carbachol (100 μM, 6 min) or UK14304 (1 μM, 10 min) before lysis.”

For the molecule “angiotensinII (DRVYIHPF; Angiotensin-2; UniProt P01019 25-32, looked up) [triggers hypertrophy via Gq-coupled AT1-receptors]”, the “co-immunoprecipitation of Gβγ with both Raf1 and Erk1/2” value in assay [1] is reported as “markedly enhanced”.
Turning to `CC(C)(C)n1nc(-c2ccc(Cl)cc2)c2c(N)ncnc21` [PP2], the “effect on neuregulin-induced effects (Gβγ co-immunoprecipitation, Gαq/11 phosphorylation, protein synthesis)” value with Src-kinase is “blocked”.
Turning to neuregulin1-β1, the “Thr188-phosphorylation of Erk1/2” value with Erk1/2 was “induced”. The “phosphorylation of Gαq/11 at Tyr356” value in the assay with Gαq/11 is “triggered”. For the same molecule, the “co-immunoprecipitation of Gβγ with both Raf1 and Erk1/2” value in assay [1] was “permitted”.
For `COc1cccc(-c2cc(=O)c3ccccc3o2)c1N` [PD98059], the “carbachol-stimulated inositol phosphate signaling compared to control cells” value in the assay on Mek is given as “enhanced”. The “carbachol-stimulated interaction of HA-Raf1 with Gβ” value with Mek1/2 is “suppressed”.

The values above are taken from patent publication US8796428B2, “Erk1/2 posphorylation site specific antibody” (Julius-Maximilians-Universitaet Wuerzburg, priority 2008, dated 2014).
